For series [1], the target named is human BACE1 (Homo sapiens, UniProt P56817). Kind of series: BACE-1 fluorescent kinetic assay (cleavage of peptide substrate WABC-6). Type of series: biochemical. The note with it: 10 nM enzyme, 25 μM substrate WABC-6, Na-Acetate pH 4.5, room temperature. As to the method:
Evaluation of BACE-1 Binding Affinity of Test Compounds
Fluorescent Kinetic Assay
Dilution and mixing steps: total reaction volume: 100 μL
100 μM substrate dilution in 1×PBS was prepared, and
Fluorescence Readings: Readings at λex 320 nm and λem 420 nm are taken every 40 sec for 30 min at room temperature and the linear slope for substrate cleavage rate (vi) determined.

Molecules are shown by their SMILES.

Chain of human BACE1 (P56817 46-501): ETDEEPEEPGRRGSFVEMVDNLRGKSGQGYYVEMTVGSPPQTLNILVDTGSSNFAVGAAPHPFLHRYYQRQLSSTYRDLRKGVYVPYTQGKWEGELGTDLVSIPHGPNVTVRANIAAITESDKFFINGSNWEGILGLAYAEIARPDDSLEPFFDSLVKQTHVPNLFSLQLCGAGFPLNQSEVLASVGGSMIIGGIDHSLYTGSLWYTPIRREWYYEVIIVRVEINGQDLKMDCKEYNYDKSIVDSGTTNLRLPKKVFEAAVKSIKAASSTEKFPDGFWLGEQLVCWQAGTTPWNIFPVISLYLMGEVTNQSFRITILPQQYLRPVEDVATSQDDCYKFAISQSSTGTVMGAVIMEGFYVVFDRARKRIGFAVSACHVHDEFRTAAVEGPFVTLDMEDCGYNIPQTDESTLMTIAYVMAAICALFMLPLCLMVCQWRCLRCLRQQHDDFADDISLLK

As for `CCOC(=O)c1ccc(-c2ccc(-c3ccc(F)cc3)n2Cc2cccc(N)n2)cc1` [Example 57, Ethyl 4-[1-[(6-aminopyridin-2-yl)methyl]-5-(4-fluorophenyl)-1H-pyrrol-2-yl]benzoate], the melting point lay in the range of 172 to 173 °C. Also, in series [1], the “BACE 1 IC50 μM” value is recorded as “D (D = >5.0 μM-0.10 = μM)”.
The matching figures for `CCOC(=O)c1ccc(-c2ccc(-c3ccccc3)n2Cc2cccc(N)n2)cc1` [Example 58, Ethyl 4-{1-[(6-aminopyridin-2-yl)methyl]-5-phenyl-1H-pyrrol-2-yl}benzoate]: 161 to 162 °C and “D (D = >5.0 μM-0.10 = μM)”.
`CCNC(=O)c1ccc(-c2ccc(-c3ccc(F)cc3)n2Cc2cccc(N)n2)cc1` [Example 61, 4-[1-[(6-aminopyridin-2-yl)methyl]-5-(4-fluorophenyl)-1H-pyrrol-2-yl]-N-ethylbenzamide] had a melting point of 184 to 185 °C. Besides, the IC50 in series [1] lay in the range of 1.1 to 5 µM.
In the case of `Nc1cccc(Cn2c(-c3ccccc3)ccc2-c2ccc(C(=O)NCC3CCCO3)cc2)n1` (centres unmarked) [Example 66, 4-{1-[(6-aminopyridin-2-yl)methyl]-5-phenyl-1H-pyrrol-2-yl}-N-(tetrahydrofuran-2-ylmethyl)benzamide], the melting point was in the range of 98 to 99 °C. Further, the “BACE 1 IC50 μM” value in series [1] is “D (D = >5.0 μM-0.10 = μM)”.

These data come from US7732457B2, “Amino-pyridines as inhibitors of β-secretase” (Wyeth LLC, priority 2005, dated 2010).
